The values below come from PMC9329436, “Optimization of the 4-anilinoquin(az)oline scaffold as epidermal growth factor receptor (EGFR) inhibitors for chordoma utilizing a toxicology profiling assay platform” (Scientific Reports, 2022).

Where two headings read alike, the source gives them in different places.

Holding throughout (assay type): biochemical
Assay [1] has as its target T1, 320 wild-type protein kinases (Homo sapiens, UniProt O94806).
T1 sequence (O94806 1-890): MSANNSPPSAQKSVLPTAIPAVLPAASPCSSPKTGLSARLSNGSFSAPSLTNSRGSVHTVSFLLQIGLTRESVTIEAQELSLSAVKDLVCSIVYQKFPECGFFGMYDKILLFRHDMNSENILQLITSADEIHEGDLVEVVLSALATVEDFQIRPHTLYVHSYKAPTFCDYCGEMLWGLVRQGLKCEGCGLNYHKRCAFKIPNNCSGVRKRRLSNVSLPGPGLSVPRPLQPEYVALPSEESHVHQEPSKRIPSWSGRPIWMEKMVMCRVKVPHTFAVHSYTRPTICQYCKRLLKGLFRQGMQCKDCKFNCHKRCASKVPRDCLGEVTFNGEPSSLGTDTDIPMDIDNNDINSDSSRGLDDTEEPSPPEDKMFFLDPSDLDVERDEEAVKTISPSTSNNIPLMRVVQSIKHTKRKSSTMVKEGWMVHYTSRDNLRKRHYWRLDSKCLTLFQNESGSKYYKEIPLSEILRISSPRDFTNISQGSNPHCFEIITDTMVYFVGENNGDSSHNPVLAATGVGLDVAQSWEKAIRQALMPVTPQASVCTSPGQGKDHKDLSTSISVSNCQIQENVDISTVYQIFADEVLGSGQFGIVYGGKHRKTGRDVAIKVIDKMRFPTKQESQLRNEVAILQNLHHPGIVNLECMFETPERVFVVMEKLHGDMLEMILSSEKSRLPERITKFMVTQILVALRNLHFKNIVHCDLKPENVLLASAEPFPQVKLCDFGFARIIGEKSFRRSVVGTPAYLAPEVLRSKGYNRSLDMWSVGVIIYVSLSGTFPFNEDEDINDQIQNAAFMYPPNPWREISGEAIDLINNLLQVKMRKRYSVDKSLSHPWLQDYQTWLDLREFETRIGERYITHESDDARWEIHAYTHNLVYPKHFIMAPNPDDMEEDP
As to conditions: PKC-nu, singlicate. The text has this:
(§1) Table S4. Profiling of two compounds at two concentrations against 320 wild-type protein kinases; singlicate measurement; Residual activities (% of control).

Assay [2] deals with T2, 320 wild-type protein kinases (Homo sapiens, UniProt P35626).
T2 sequence (P35626 1-688): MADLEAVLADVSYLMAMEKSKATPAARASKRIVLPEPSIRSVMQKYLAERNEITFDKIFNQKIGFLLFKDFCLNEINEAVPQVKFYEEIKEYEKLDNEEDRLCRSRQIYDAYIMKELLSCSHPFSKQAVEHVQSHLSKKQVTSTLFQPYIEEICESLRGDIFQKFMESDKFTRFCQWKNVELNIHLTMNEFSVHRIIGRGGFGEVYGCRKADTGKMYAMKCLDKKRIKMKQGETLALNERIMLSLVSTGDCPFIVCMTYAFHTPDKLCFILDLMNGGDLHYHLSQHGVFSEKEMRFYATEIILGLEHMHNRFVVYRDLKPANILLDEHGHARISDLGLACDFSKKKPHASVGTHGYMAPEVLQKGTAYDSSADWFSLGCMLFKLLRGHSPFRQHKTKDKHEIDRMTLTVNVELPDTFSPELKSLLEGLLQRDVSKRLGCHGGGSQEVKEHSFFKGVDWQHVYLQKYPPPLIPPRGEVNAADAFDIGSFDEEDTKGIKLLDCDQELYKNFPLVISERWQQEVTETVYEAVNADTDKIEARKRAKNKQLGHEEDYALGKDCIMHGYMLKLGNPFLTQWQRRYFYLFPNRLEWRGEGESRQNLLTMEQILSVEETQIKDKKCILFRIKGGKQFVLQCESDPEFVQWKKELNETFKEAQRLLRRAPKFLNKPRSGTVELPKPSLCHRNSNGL
As to conditions: singlicate.
Text: as §1

The target of assay [3] is T3, 320 wild-type protein kinases (Homo sapiens, UniProt P36896).
T3 sequence (P36896 24-505): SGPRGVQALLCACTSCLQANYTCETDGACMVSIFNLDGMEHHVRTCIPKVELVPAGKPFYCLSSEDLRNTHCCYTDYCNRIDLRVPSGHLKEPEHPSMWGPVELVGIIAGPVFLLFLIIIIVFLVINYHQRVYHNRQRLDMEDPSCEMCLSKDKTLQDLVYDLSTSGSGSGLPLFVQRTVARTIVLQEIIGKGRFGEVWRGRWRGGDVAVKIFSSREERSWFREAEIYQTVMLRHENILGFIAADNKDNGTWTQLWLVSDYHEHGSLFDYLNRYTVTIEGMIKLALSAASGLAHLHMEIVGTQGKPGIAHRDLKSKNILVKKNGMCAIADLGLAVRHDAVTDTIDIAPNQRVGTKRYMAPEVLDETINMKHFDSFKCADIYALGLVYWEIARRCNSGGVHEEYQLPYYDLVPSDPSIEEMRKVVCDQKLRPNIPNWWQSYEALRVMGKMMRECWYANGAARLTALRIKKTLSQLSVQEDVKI
As to conditions: ACV-R1B, singlicate.
Text: as §1

In assay [4] the target is T4, 320 wild-type protein kinases (Homo sapiens, UniProt Q13163).
T4 sequence (Q13163 1-448): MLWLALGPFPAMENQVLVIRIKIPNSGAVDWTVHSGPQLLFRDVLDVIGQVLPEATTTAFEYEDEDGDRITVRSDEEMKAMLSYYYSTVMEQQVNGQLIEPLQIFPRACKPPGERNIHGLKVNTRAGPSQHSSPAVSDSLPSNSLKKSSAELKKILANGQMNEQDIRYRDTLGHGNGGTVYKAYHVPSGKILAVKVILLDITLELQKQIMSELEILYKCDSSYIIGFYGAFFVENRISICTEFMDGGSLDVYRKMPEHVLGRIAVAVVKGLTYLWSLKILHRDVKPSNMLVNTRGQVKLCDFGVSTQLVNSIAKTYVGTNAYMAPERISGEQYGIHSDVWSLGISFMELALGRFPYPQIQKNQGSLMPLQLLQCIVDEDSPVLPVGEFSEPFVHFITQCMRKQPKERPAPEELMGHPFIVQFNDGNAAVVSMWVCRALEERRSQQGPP
As to conditions: singlicate.
Text: as §1

With `C#Cc1cc(Nc2ncnc3cc(OC)c(OC)cc23)ccc1Cl` [Compound 45], the Residual activity in assay [1] (1.0E-06 M) is given as 84 % of control; in assay [1] (1.0E-07 M) it was 99 % of control; in assay [2] (GRK3, 1.0E-06 M), 118 % of control; in assay [2] (GRK3, 1.0E-07 M), 123 % of control; in assay [3] (1.0E-06 M) it was 128 % of control; in assay [3] (1.0E-07 M), 99 % of control. In addition, the Residual activity in assay [4] (MEK5, 1.0E-06 M) is reported as 108 % of control; in assay [4] (MEK5, 1.0E-07 M), 107 % of control.

Take `C#Cc1cc(Nc2ncnc3cc(I)ccc23)ccc1Cl` [Compound 41]: the Residual activity in assay [1] (1.0E-06 M) is on record as 86 % of control; in assay [1] (1.0E-07 M), 87 % of control; in assay [2] (GRK3, 1.0E-06 M) it was 127 % of control; in assay [2] (GRK3, 1.0E-07 M), 131 % of control; in assay [3] (1.0E-06 M), 126 % of control; in assay [3] (1.0E-07 M), 105 % of control. Also, the Residual activity is recorded as 100 % of control in assay [4] (MEK5, 1.0E-06 M) and 103 % of control in assay [4] (MEK5, 1.0E-07 M).
